Laboratory results as given in ChEMBL document CHEMBL5230120, “Antiviral potential of natural products from marine microbes” (Eur J Med Chem, 2020).
pEC50, pIC50: −log10 of the molar value. In brackets after ≈: the same amount, converted by molar mass. Starred links: 1 amine or outer side, 2 acyl side, 3 side chain; linkers in the order of their positions; H or OH if unused. Positions of bridges follow the written chain, without caps; N, C: chain ends. Non-standard residues stand in square brackets, D forms with d. Residues, ends and D or L forms follow the SMILES beside them. X1 = CCCCCCCCC[C@@H](CCCC(=O)[*:1])O[*:2]; d(aThr) = C[C@@H](O)[C@@H](N)C(=O)O; dNMeY = CN[C@H](Cc1ccc(O)cc1)C(=O)O; aIle = CC[C@@H](C)[C@H](N)C(=O)O

How the values were obtained:
Influenza A virus [1] = assay type: functional
[2] = tested on: Respiratory syncytial virus; assay type: functional, organism-based; conditions: human respiratory syncytial virus, HEp-2
Influenza A virus [3] = assay type: functional, organism-based; conditions: H1N1
Influenza A virus [4] = assay type: functional, organism-based; conditions: A/Puerto Rico/8/1934(H1N1), MDCK, 48 h
Enterovirus A71 [5] = assay type: functional, organism-based; conditions: Enterovirus A, Vero
Enterovirus A71 [6] = assay type: functional, organism-based; conditions: Enterovirus A, Vero; remark: listed apart in the source
Human alphaherpesvirus 1 [7] = assay type: functional, organism-based; conditions: Human alphaherpesvirus 1, KOS, Vero, 72 h
[8] = Cytotoxicity against human HEK293 cells assessed as reduction in cell viability; assay type: toxicity, cell-based
Human alphaherpesvirus 1 [9] = assay type: functional, organism-based; conditions: Human alphaherpesvirus 1, Vero, 72 h
Human alphaherpesvirus 1 [10] = assay type: functional, organism-based; conditions: Human alphaherpesvirus 1, Vero, 72 h; remark: listed apart in the source
[11] = tested on: Human immunodeficiency virus 1; assay: Antiviral activity against HIV-1 infected in human HEK293 cells co-expressing firefly luciferase gene assessed as inhibition of viral growth incubated for 48 hrs by firefly luciferase assay; assay type: functional, organism-based; conditions: Human immunodeficiency virus 1, HEK293, 48 h
Human alphaherpesvirus 1 [12] = assay type: functional, organism-based; conditions: Human alphaherpesvirus 1, Vero, 72 h; remark: listed apart in the source
[13] = tested on: Western equine encephalitis virus; assay: Antiviral activity against Western equine encephalomyelitis virus Cba-87 infected in Golden hamster BSR-T7/5 cells assessed as reduction in viral RNA replication by RT-PCR analysis; assay type: functional, organism-based; conditions: Cba-87, BSR-T7/5
Chikungunya virus = assay: Antiviral activity against CHIKV infected in Golden hamster BHK-21 cells assessed as reduction in viral titer incubated for 3 days by plaque assay; assay type: functional, organism-based; conditions: BHK-21, 72 h
Influenza A virus [14] = assay: microbe, parasite or virus in culture; conditions: A/WSN/33 (H1N1), MDCK
[15] = tested on: Human immunodeficiency virus 1; assay: Antiviral activity against HIV1 VSV-G pseudotyped virus infected in human SUP-T1 cells infected using supernatant of virus-producing 293T cells incubated for 48 hrs by firefly luciferase assay; assay type: functional, organism-based; conditions: Human immunodeficiency virus 1, HEK293, 48 h
Hepatitis C virus = assay: Antiviral activity against HCV infected in human Huh7.5 cells incubated for 72 hrs by RT-PCR assay; assay type: functional, organism-based, Hepacivirus hominis; conditions: Huh7.5, 72 h
Human alphaherpesvirus 1 [16] = assay type: functional, organism-based; conditions: Human alphaherpesvirus 1, Vero, 72 h; remark: listed apart in the source
Influenza A virus [17] = assay: microbe, parasite or virus in culture; conditions: H3N2, Vero
Influenza A virus [18] = assay: microbe, parasite or virus in culture; conditions: H3N2, MDCK, 48 h
Dengue virus = assay: Antiviral activity against Dengue virus serotype 2 infected in HEK293T/17 cells assessed as reduction in viral production at 50 uM incubated for 24 hrs by flow cytometric analysis; assay type: functional; parameters: scale not given: the % may be the effect or the level left
Human alphaherpesvirus 1 [19] = assay type: functional, organism-based; conditions: Human alphaherpesvirus 1, 15577, Vero
Influenza A virus [20] = assay: microbe, parasite or virus in culture; conditions: H1N1, MDCK, 48 h
Human alphaherpesvirus 1 [21] = assay type: functional, organism-based; conditions: Human alphaherpesvirus 1, Vero, 72 h; remark: listed apart in the source

O=C1C[C@H](O)Cc2cc3cc(O)cc(-c4ccccc4)c3c(O)c21
inhibition at 50 µg/mL (Influenza A virus [1]): 47.8%

NC(=O)c1ncn([C@@H]2O[C@H](CO)[C@@H](O)[C@H]2O)n1 [RIBAVIRIN]
pIC50 [2]: 7.10 | pIC50 (Influenza A virus [3]): 3.88 | pIC50 (Influenza A virus [4]): 4.41 | pIC50 (Enterovirus A71 [5]): 4.88 | pIC50 (Enterovirus A71 [6]): 4.88 | inhibition at 50 µg/mL (Influenza A virus [1]): 45.3%

COc1cc(O)c2c(c1)[C@H](O)[C@@H](CO)CC2=O
IC50 (Human alphaherpesvirus 1 [7]): 1 µg/mL (≈ 4.2 µM)

C=C(C)C#CC1=C[C@@H]2O[C@@H](C(C)(C)O)C[C@]23O[C@@H]3[C@H]1O
pIC50 [8]: < 4.00

COc1cc(O)c2c(c1)[C@H](O)[C@@H](CC(C)=O)CC2=O
IC50 (Human alphaherpesvirus 1 [7]): 1 µg/mL (≈ 3.78 µM)

COc1cc(O)c2c(c1)[C@H](O)[C@](O)(CC(C)O)CC2=O (stereo partly specified)
IC50 (Human alphaherpesvirus 1 [7]): 0.01 µg/mL (≈ 0.0354 µM)

Nc1nc2c(ncn2COCCO)c(=O)[nH]1 [ACYCLOVIR]
pIC50 (Human alphaherpesvirus 1 [9]): 5.46 | pEC50 (Human alphaherpesvirus 1 [10]): 5.52

COc1cc(CCCC(C)C)oc(=O)c1C
pIC50 [8]: < 4.00 | pIC50 [11]: 4.79

COC(=O)[C@]1(Cc2ccc3c(c2)CCC(C)(C)O3)OC(=O)C(O)=C1c1ccc(O)cc1
IC50 (Human alphaherpesvirus 1 [12]): 28.9 µg/mL (≈ 68.1 µM)

CCCCCCCC[C@H]1C(=O)O[C@H](C)[C@H](NC(=O)c2cccc(NC=O)c2O)C(=O)O[C@@H](C)[C@@H]1OC(=O)CC(C)CC (stereo partly specified)
pIC50 [13]: 8.52

CO[C@@H](CC[C@H](C)[C@H]1O[C@]23C[C@H](OC(=O)C[C@H]([C@@H](C)O)OC(=O)CC(=C(C)CC2(C)C)O3)[C@@H]1C)c1cccc(O)c1
pIC50 (Chikungunya virus): 4.65

CC1=C[C@@H]2CCC[C@H](C)[C@H]2[C@H](/C(O)=C2\C(=O)[C@@H](C(C)C)N(C)C2=O)[C@H]1[C@@H]1O[C@H]1C
pIC50 (Human alphaherpesvirus 1 [9]): 5.03

COc1cc(O)c2c(c1)[C@H](O)[C@](O)(CC(C)=O)CC2=O
IC50 (Human alphaherpesvirus 1 [7]): 0.1 µg/mL (≈ 0.357 µM)

C=C(C)C#CC1=C[C@@H]2O[C@@H](C(C)(C)O)C[C@]23O[C@@H]3[C@@H]1O
pIC50 (Influenza A virus [14]): 4.52

CC1(C)CCc2cc(/C=C3\OC(=O)C=C3c3ccc(O)cc3)ccc2O1
pIC50 (Influenza A virus [4]): 4.06

COC1(Cc2ccc(O)cc2)OC(=O)C(O)=C1c1ccc(O)cc1 (stereo unspecified)
IC50 (Human alphaherpesvirus 1 [12]): 21.8 µg/mL (≈ 66.4 µM)

CO[C@@H](CC[C@H](C)[C@H]1O[C@@]23C[C@H](OC(=O)C[C@H]([C@@H](C)O)OC(=O)C[C@](OC)(O2)[C@H](C)CC3(C)C)[C@@H]1C)c1cccc(O)c1
pIC50 (Chikungunya virus): 5.57

CC[C@H](C)c1nc(OC)c(Cc2c[nH]c3ccccc23)nc1O
pIC50 [15]: 5.34 | pIC50 (Hepatitis C virus): 5.11

Nc1nc2c(ncn2COC(CO)CO)c(=O)[nH]1 [GANCICLOVIR]
pEC50 (Human alphaherpesvirus 1 [16]): 7.60

Cc1c2c(c3oc4c(C)c(=O)c(C)c5c-4c(c3c1O)O[C@H](C)[C@H]5C)O[C@H](C)[C@H]2C
pIC50 (Enterovirus A71 [6]): 4.84

CC(=O)[C@H]1CC[C@H]2C3=CC(=O)[C@H]4C[C@H](O)CC[C@]4(C)[C@H]3CC[C@]12C
pIC50 (Influenza A virus [17]): 4.79

CCOC(=O)C1=C[C@@H](OC(CC)CC)[C@H](NC(C)=O)[C@@H](N)C1 [OSELTAMIVIR]
pIC50 (Influenza A virus [17]): 7.47 | pIC50 (Influenza A virus [14]): 4.33

COc1cc(O)c2c(c1)[C@@H]1OC(C)(OC)C[C@]1(O)CC2=O (stereo partly specified)
IC50 (Human alphaherpesvirus 1 [7]): 0.1 µg/mL (≈ 0.34 µM)

COc1ccc(-c2cc3c(c(=O)o2)C[C@H]2[C@@](C)(CC[C@@]4(O)C(C)(C)OC(=O)CC[C@]24C)O3)cc1
IC50 (Human alphaherpesvirus 1 [12]): 16.4 µg/mL (≈ 35 µM)

CCCCC/C=C/C1=C(CO)[C@@H]2OC(C)(C)[C@@H](O)C[C@@]23O[C@H]3[C@@H]1O
pIC50 [2]: 4.52

CCC[C@H]1C[C@H]2OC(=O)c3c(cc(O)c(OC)c3O)[C@H]2O1
pIC50 (Influenza A virus [4]): 3.76

CC(=O)C(C)(O)CCCCC[C@H]1C=CC(=O)O1 (stereo partly specified)
pEC50 (Human alphaherpesvirus 1 [16]): 4.60

COc1cc(O)c2c(c1)[C@H](O)[C@](O)(CO)CC2=O
IC50 (Human alphaherpesvirus 1 [7]): 1 µg/mL (≈ 3.93 µM)

CCCCC/C=C/C1=C(CO)[C@@H]2OC(C)(C)[C@@H](O)C[C@]2(O)[C@H](O)[C@@H]1O
pIC50 [2]: 4.14

COC(=O)/C(C)=C/COc1cc(=O)oc(/C=C/C=C/C=C/[C@H]2O[C@H]3O[C@H](C)[C@](C)(O)[C@@]3(C)[C@H]2O)c1C
pIC50 (Influenza A virus [18]): 8.05

CC(C)[C@@H]1NC(=O)[C@@H](C[C@@]2(O)c3ccccc3N3C(=O)C(C)(C)N[C@@H]32)n2c1nc1ccccc1c2=O
Activity (Dengue virus): 50%

COc1ccc(C[C@@H]2NC(=O)[C@@H]3CCCN3C(=O)[C@H](C(C)C)NC(=O)[C@@H](Cc3ccc(O)cc3)N(C)C(=O)[C@H](Cc3ccc(OC)cc3)NC2=O)cc1 (cyclo(PY(Me)Y(Me)[dNMeY]V))
pIC50 (Human alphaherpesvirus 1 [19]): 5.02

CCC[C@H]1C[C@H]2OC(=O)c3c(cc(OC)c(OC)c3O)[C@H]2O1 [MONOCERIN]
pIC50 (Influenza A virus [4]): 3.76

C/C=C(\C)[C@H]1C(C)=C[C@@H]2CCC[C@H](C)[C@H]2[C@@H]1/C(O)=C1\C(=O)[C@@H](C(C)C)N(C)C1=O
pIC50 (Human alphaherpesvirus 1 [9]): 5.51

CC(O)c1cc2c(cc1O)C(=O)c1cc(O)cc(O)c1C2=O (stereo unspecified)
pIC50 (Enterovirus A71 [5]): 4.59

CC(C)CC[C@@H]1NC(=O)/C(=C/c2ccccc2)NC1=O
pIC50 (Influenza A virus [4]): 5.17

CC(=O)[C@H]1CC[C@H]2C3=CC(=O)[C@@]4(C)C[C@H](O)CC[C@]4(C)[C@H]3CC[C@]12C
pIC50 [2]: 6.92

C=C(CC[C@@H](C)[C@H]1CC=C2C3=C(CC[C@@]21C)[C@@]1(C)CC[C@H](O)C[C@@H]1CC3=O)C(C)C
pIC50 [15]: 5.46

CC[C@H]1O[C@@H]2O[C@H](/C=C/C=C/C=C/c3oc(=O)cc(OC/C=C(\C)C(=O)OC)c3C)[C@H](O)[C@]2(C)[C@@]1(C)O
pIC50 (Influenza A virus [20]): 5.46 | pIC50 (Influenza A virus [18]): 8.21

O=C(O)c1ccccc1Nc1c(C[C@H](O)[C@H](O)CO)[nH]c2c(C(=O)O)cccc12
pIC50 (Influenza A virus [3]): 3.77

CCCCCCCCC[C@H]1CCCC(=O)N[C@H](CO)C(=O)N[C@H](C)C(=O)N2CCC[C@H]2C(=O)N[C@@H](CCC(N)=O)C(=O)N[C@H](Cc2ccc(O)cc2)C(=O)N[C@@H](C(C)C)C(=O)O1
pEC50 (Human alphaherpesvirus 1 [10]): 4.81

CCC(C)[C@@H]1C(=O)/C(=C(/O)[C@@H]2[C@@H]([C@@H]3O[C@H]3C)C(C)=C[C@@H]3CCC[C@H](C)[C@@H]23)C(=O)N1C (stereo partly specified)
pIC50 (Human alphaherpesvirus 1 [9]): 5.51

COc1ccc(-c2cc3c(c(=O)o2)C[C@]2(O)[C@@]4(C)C(=O)C=CC(C)(C)[C@]4(O)CC[C@@]2(C)O3)cc1OC
IC50 (Human alphaherpesvirus 1 [12]): 6.34 µg/mL (≈ 12.8 µM)

C[C@@H]1C/C=C/C(=O)C/C=C/[C@H](O)CC(=O)O1
pIC50 (Human alphaherpesvirus 1 [21]): 6.35

CO[C@@H](CC[C@H](C)[C@H]1O[C@@]23C[C@H](OC(=O)C[C@H]([C@@H](C)O)OC(=O)C[C@](O)(O2)[C@H](C)CC3(C)C)[C@@H]1C)c1cccc(O)c1 [DEBROMOAPLYSIATOXIN]
pIC50 (Chikungunya virus): 5.89

CCCCCCCCC[C@H]1CCCC(=O)N[C@H]([C@@H](C)O)C(=O)N[C@H](C)C(=O)N2CCC[C@H]2C(=O)N[C@@H](CCC(N)=O)C(=O)N[C@H](Cc2ccc(O)cc2)C(=O)N[C@@H](C(C)C)C(=O)O1
pEC50 (Human alphaherpesvirus 1 [10]): 4.78

CC(=O)c1c(O)cc2c3c(cccc13)C=C(C[C@@H](C)O)O2
inhibition at 50 µg/mL (Influenza A virus [1]): 42.5%

O=C1Nc2ccc(Cl)cc2[C@@](C#CC2CC2)(C(F)(F)F)O1 [EFAVIRENZ]
pIC50 [8]: 4.39

CCCCCCCCC[C@H]1CCCC(=O)N[C@H]([C@@H](C)O)C(=O)N[C@H](C)C(=O)N2CCC[C@H]2C(=O)N[C@@H](CCC(N)=O)C(=O)N[C@H](Cc2ccc(O)cc2)C(=O)N[C@@H]([C@H](C)CC)C(=O)O1 ([d(aThr)][dA]PQ[dY][aIle]; linker N-C via X1)
pEC50 (Human alphaherpesvirus 1 [10]): 4.85

CC(C)[C@@H](NC(=O)[C@H](Cc1c[nH]c2ccccc12)NC(=O)[C@H](N)Cc1ccc(O)cc1)C(=O)O
pIC50 (Human alphaherpesvirus 1 [19]): 4.70

CC(C)/C=c1\[nH]c(=O)/c(=C/c2ccc(O)cc2)[nH]c1=O
pIC50 (Influenza A virus [4]): 4.38
